Measured values from patent US12318390B2, “Pharmaceutical composition for oral administration comprising aminopyrimidine derivative or its salt” (YUHAN CORPORATION, priority 2018, dated 2025).
≈ marks a conversion by molar mass, not a printed value.

Assays:
[1] = Comparative pharmacokinetic test in esomeprazole-treated rats; assay type: in vivo, rats (SD rat); conditions: for area under the blood concentration curve reduced compared with the normal rats / maximum blood concentration reduced compared with the normal rats: esomeprazole-treated rats vs normal rats
Description: (§1) Specifically, in the normal rats and the esomeprazole-treated rats, maximum blood concentrations (Cmax) and areas under the blood concentration curve (AUClast) were compared with each other, respectively, to evaluate the absorption of drugs in animals.
The results (the maximum blood concentration and the area under the blood concentration curve) of the comparative pharmacokinetic test obtained therefrom were shown in Table 7 and FIGS. 5 and 6.

[2] = Comparative pharmacokinetic test in normal rats; assay type: in vivo, rats (SD rat)
Description: as §1

[3] = Pharmacokinetic test for Lazertinib mesylate and free-base in beagle dogs; assay type: in vivo; conditions: beagle dog
Description: The results (the maximum blood concentration and the area under the blood concentration curve) of the comparative pharmacokinetic test obtained therefrom were shown in Table 8 and FIG. 7.

[4] = Solubility test; assay type: physicochemical; conditions: thermodynamic from solid, 37° C.
Procedure: In addition, 100 mg of Lazertinib free-base (prepared in the same manner as the method described in WO 2016/060443) was tested under the same conditions.

[5] = Stability test under accelerated condition; assay type: physicochemical; conditions: for Purity: HPLC
[6] = Stability test under stressed condition; assay type: physicochemical; conditions: for PXRD pattern: stressed condition 60 ± 2° C., 75 ± 5% RH; for Purity: HPLC
[7] = esomeprazole-treated rats, oral 30 mg/kg
[8] = Esomeprazole-treated rat (5 mg/kg i.v. for 3 days), oral 30 mg/5 mL/kg
[9] = Normal rat, oral 30 mg/5 mL/kg in 0.5% methyl cellulose
[10] = accelerated condition, 3 months
[11] = accelerated condition, 6 months
[12] = accelerated condition, Start to 6 months
[13] = stressed condition, Start to 4 weeks
[14] = oral 5 mg/2 mL/kg in 0.5% methyl cellulose

## C=CC(=O)Nc1cc(Nc2nccc(-n3cc(CN(C)C)c(-c4ccccc4)n3)n2)c(OC)cc1N1CCOCC1 [Lazertinib free-base, N-(5-(4-(4-((dimethylamino)methyl)-3-phenyl-1H-pyrazol-1-yl)pirimidine-2-ylamino)-4-methoxy-2-morpholinophenyl)acrylamide]
[1]
  area under the blood concentration curve reduced compared with the normal rats: 63.8%
  maximum blood concentration reduced compared with the normal rats: 69.3%
[1]; [7]
  area under the blood concentration curve lower than Lazertinib mesylate: 49.4%
  maximum blood concentration lower than Lazertinib mesylate: 47.8%
[1]; male, SD, blood, Esomeprazole-treated rat (i.v. for 3 days), oral 30 mg/5 mL/kg, read-out: Area under the blood concentration curve (AUClast)
  AUC(0-t): 2640 ng·h/mL
[1]; male, SD, blood, Esomeprazole-treated rat (i.v. for 3 days), oral 30 mg/5 mL/kg, read-out: Maximum blood concentration (Cmax)
  Cmax: 223 ng/mL
[2]; male, SD, blood, 30 mg/kg, Normal rat, oral 30 mg/5 mL/kg in 0.5% methyl cellulose, read-out: Area under the blood concentration curve (AUClast)
  AUC(0-t): 7290 ng·h/mL
[2]; male, SD, blood, 30 mg/kg, Normal rat, oral 30 mg/5 mL/kg in 0.5% methyl cellulose, read-out: Maximum blood concentration (Cmax)
  Cmax: 726 ng/mL
[2]; normal rats, oral 30 mg/kg
  area under the blood concentration curve lower than Lazertinib mesylate: 10.4%
  maximum blood concentration lower than Lazertinib mesylate: 11.0%
[3]; oral 5 mg/kg
  area under the blood concentration curve lower than Lazertinib mesylate: 50.4%
  maximum blood concentration lower than Lazertinib mesylate: 40.1%
[3]; male, blood, 5 mg/kg, oral 5 mg/2 mL/kg in 0.5% methyl cellulose, read-out: Area under the blood concentration curve (AUClast)
  AUC(0-t): 379 ng·h/mL
[3]; male, blood, 5 mg/kg, oral 5 mg/2 mL/kg in 0.5% methyl cellulose, read-out: Maximum blood concentration (Cmax)
  Cmax: 80.7 ng/mL
[4]; fassgf or other biorelevant, Artificial gastric juice (FaSSGF)
  solubility at 12 h: 1500 µg/mL (≈ 2700 µM)
[4]; organic solvent or mixture, Ethanol
  solubility at 12 h: 599 µg/mL (≈ 1080 µM)
[4]; pH 1.2 buffer solution, simulated gastric fluid, pH 1.2 buffer
  solubility at 12 h: 4400 µg/mL (≈ 7930 µM)
[4]; pH 2.0 buffer solution, simulated gastric fluid, pH 2.0 buffer
  solubility at 12 h: 3700 µg/mL (≈ 6670 µM)
[4]; pH 3.0 buffer solution, aqueous buffer, pH 3.0 buffer
  solubility at 12 h: 1900 µg/mL (≈ 3430 µM)
[4]; pH 4.0 buffer solution, aqueous buffer, pH 4.0 buffer
  solubility at 12 h: 1000 µg/mL (≈ 1800 µM)
[4]; pH 5.0 buffer solution, aqueous buffer, pH 5.0 buffer
  solubility at 12 h: 10 µg/mL (≈ 18 µM)
[4]; pH 6.0 buffer solution, aqueous buffer, pH 6.0 buffer
  solubility at 12 h: 3 µg/mL (≈ 5.41 µM)
[4]; pH 7.0 buffer solution, aqueous buffer, pH 7.0 buffer
  solubility at 12 h: 1 µg/mL (≈ 1.8 µM)
[4]; Artificial intestinal fluid (FaSSIF)
  solubility at 12 h: 27 µg/mL (≈ 48.7 µM)
[4]; water
  solubility at 12 h: 1 µg/mL (≈ 1.8 µM)

## mesylic acid salt of N-(5-(4-(4-((dimethylamino)methyl)-3-phenyl-1H-pyrazol-1-yl)pirimidine-2-ylamino)-4-methoxy-2-morpholinophenyl)acrylamide [Lazertinib mesylate]
[1]; [8]
  Area under the blood concentration curve (AUClast): 5210.9 ng·h/mL
  Maximum blood concentration (Cmax): 427.5 ng/mL
[1]
  area under the blood concentration curve reduced compared with the normal rats: 36.0%
  maximum blood concentration reduced compared with the normal rats: 47.6%
[2]; [9]
  Area under the blood concentration curve (AUClast): 8139.0 ng·h/mL
  Maximum blood concentration (Cmax): 815.6 ng/mL
[5]; accelerated condition 40 ± 2° C., 75 ± 5% RH, 1 month
  PXRD pattern: Same
[5]; accelerated condition, 1 month
  Appearance (color): White
  Content: 98.9%
  DSC Onset: 214 °C
  Water Content: 2.73%
  Purity: 99.3%
[5]; [10]
  Appearance (color): White
  Content: 98.9%
  DSC Onset: 214 °C
  PXRD pattern: Same
  Water Content: 3.19%
  Purity: 99.3%
[5]; [11]
  Appearance (color): White
  Content: 99.1%
  DSC Onset: 214 °C
  PXRD pattern: Same
  Water Content: 3.01%
  Purity: 99.3%
[5]; accelerated condition, Start
  Appearance (color): White
  Content: 98.8%
  DSC Onset: 214 °C
  Water Content: 2.48%
  Purity: 99.2%
[5]; [12]
  Content Variation: +0.3%
  Purity Variation: +0.1%
  Water Content Variation: +0.53%
[6]; 2 weeks
  PXRD pattern: Same
[6]; 4 weeks
  PXRD pattern: Same
[6]; stressed condition, 2 weeks
  Appearance (color): White
  Content: 97.7%
  DSC Onset: 214 °C
  Water Content: 2.71%
  Purity: 99.3%
[6]; stressed condition, 4 weeks
  Appearance (color): White
  Content: 98.9%
  DSC Onset: 214 °C
  Water Content: 2.70%
  Purity: 99.3%
[6]; stressed condition, Start
  Appearance (color): White
  Content: 98.8%
  DSC Onset: 214 °C
  Water Content: 2.48%
  Purity: 99.2%
[6]; [13]
  Content Variation: +0.1%
  Purity Variation: +0.1%
  Water Content Variation: +0.22%
[3]; [14]
  Area under the blood concentration curve (AUClast): 811.5 ng·h/mL
  Maximum blood concentration (Cmax): 134.7 ng/mL
